The record followed here is US20220177471A1, “N-1 BRANCHED ALKYL SUBSTITUTED IMIDAZO[4,5-C]QUINOLINE COMPOUNDS, COMPOSITIONS, AND METHODS” (3M INNOVATIVE PROPERTIES COMPANY, priority 2019, published 2022).

SMILES strings stand for the structures. Like-named read-outs stand apart in the source and are kept apart here.

The test system of this assay is Human peripheral blood mononuclear cells (PBMC). Description: Cytokine induction in human cells (PBMC), cytokines by ELISA / multiplex bead assay. The conditions noted are these: for cytokine production (statement in words): IFN-alpha, IFN-gamma, TNF-alpha; for minimal effective concentration: human PBMC, 21-24 hours, lowest concentration giving cytokine level at least 2x negative control. The format is cell-based. As for the experimental part:
Whole blood was obtained from healthy human donors and collected by venipuncture into vacutainer tubes or syringes containing EDTA. Human peripheral blood mononuclear cells (PBMC) were purified from the whole blood by density gradient centrifugation. Histopaque 1077 (15 mL, Sigma, St. Louis, Mo.) was transferred to 6×50 mL sterile polypropylene conical tubes. The Histopaque was overlayed with 15-25 mL of blood diluted 1:2 in Hank's Balanced Salts Solution (HBSS) (Gibco, Life Technologies, Grand Island, N.Y.). The tubes were then centrifuged at 1370 revolutions per minute (rpm) for 30 minutes at 20° C., with no brake (400×g, GH 3.8 A Rotor).
The interface (buffy coat) containing the PBMC was collected and placed in a new sterile 50 mL conical polypropylene centrifuge tube. The PBMC were mixed with an equal volume of HBSS (about 20 mL from the interface and about 20 mL of HBSS), and then centrifuged at 1090 rpm, 10 minutes, 20° C., with brake (270×g, GH 3.8 A Rotor). After completing centrifugation, the cells were resuspended in 2-3 mL ACK Red blood cell lysis buffer (ammonium chloride potassium solution, Gibco, Life Technologies) and incubated for 2-5 minutes at 20° C. Next, HBSS (40 mL) was added to the cells, and the sample was centrifuged at 270×g for 10 minutes at 20° C. The supernatant was decanted, and the cell pellet was resuspended in 5 mL AIM V Medium (Gibco, Life Technologies). Cell aggregates and debris were removed by filtering the cell solution through a BD Falcon 70 micron nylon cell strainer (BD Biosciences, San Jose, Calif.).
The number of viable cells was determined by counting with a Miltenyi FACS instrument (Miltenyi Biotec Inc., San Diego, Calif.) or by using a hemacytometer. For determining cell viability with a hemacytometer, the cells were diluted 1/10 in 0.4% trypan blue and HBSS (specifically, 50 microliter of trypan blue+40 microliter of HBSS+10 microliter of cell solution were added to a microfuge tube and mixed). Ten microliters of the diluted cells were then applied to the hemacytometer, and the number of viable PBMC were determined by microscopy.
The PBMC sample was then resuspended in 96-well plates at a concentration of 8×10^5 cells/well in 0.1 mL of AIM-V medium. Each compound was solubilized in dimethyl sulfoxide (DMSO) to create a 3 mM stock solution. The stock solution was then further diluted with AIM-V medium to prepare the serial dilutions. The diluted compound (100 microliters) was then transferred to the PBMCs to produce testing sets with final compound concentrations of either 30, 10, 3.3, 1.1, 0.37, 0.12, 0.04, 0.01 micromolar (testing set A); 100, 30, 10, 3.3, 1.1, 0.37, 0.12, 0.04, 0.01, 0.005 micromolar (testing set B); 100, 33.3, 11.1, 3.7, 1.2, 0.41 micromolar (testing set C); or 100, 50, 30, 10, 3.3, 1.1, 0.37, 0.12, 0.04 micromolar (testing set D). The plates also had both positive and negative controls. The negative control wells contained only AIM-V medium with no example compound. The positive control wells contained a control set of imiquimod serially diluted to concentrations of either 30, 10, 3.3, 1.1, 0.37, 0.12, 0.04, 0.01 micromolar (control set A); 100, 30, 10, 3.3, 1.1, 0.37, 0.12, 0.04, 0.01, 0.005 micromolar (control set B); 100, 33.3, 11.1, 3.7, 1.2, 0.41 micromolar (control set C); or 100, 50, 30, 10, 3.3, 1.1, 0.37, 0.12, 0.04 micromolar (control set D). The concentrations used in the control set were selected to match the concentrations used in the testing set. The plates were then cultured at 37° C./5% CO2 for 21-24 hours. Cell-free supernatants were harvested by centrifuging the 96-well plates at 2100 rpm, 23° C. for 10 minutes. Approximately 160 microliters of the supernatant was then stored in a NUNC 96-well plate, covered with the compression cap and stored at −80° C. until the cytokine analysis was done.
IFN-alpha cytokine levels (picograms/mL) were measured by ELISA (human IFN-alpha, pan specific, Mabtech, Cincinnati, Ohio). […]
A general note: An ELISA detects its analyte on a solid surface through an enzyme-linked reagent.

[1] abbreviates: ELISA, read-out: MEC to Induce Cytokine: IFN-alpha.
Setting [2] is: multiplex bead assay, read-out: MEC to Induce Cytokine: IFN-gamma.
Where [3] appears, read: multiplex bead assay, read-out: MEC to Induce Cytokine: TNF-alpha.

Consider `C[C@H](n1cnc2c(N)nc3ccccc3c21)C(C)(C)C` [Example 4, 1-[(1S)-1,2,2-trimethylpropyl]imidazo[4,5-c]quinolin-4-amine], for which the “cytokine production (statement in words)” value is “inactive toward cytokine production”. Besides, the minimal effective concentration under setting [1] was greater than 100 µM. The minimal effective concentration under setting [2] was greater than 100 µM. Moreover, the minimal effective concentration under setting [3] is greater than 100 µM.

As to `C[C@H](n1cnc2c(N)nc3ccccc3c21)C(C)(C)O` [Example 10, (3S)-3-(4-aminoimidazo[4,5-c]quinolin-1-yl)-2-methyl-butan-2-ol], the “cytokine production (statement in words)” value is “inactive toward cytokine production”. Further, the minimal effective concentration under setting [1] was greater than 30 µM. Also, the minimal effective concentration under setting [2] is greater than 30 µM. The minimal effective concentration under setting [3] was greater than 30 µM.

Take `CC[C@@H](n1cnc2c(N)nc3ccccc3c21)C(C)(C)O` [Example 11, (3R)-3-(4-aminoimidazo[4,5-c]quinolin-1-yl)-2-methyl-pentan-2-ol]: the minimal effective concentration stood at 1.1 µM under setting [1], 3.3 µM under setting [2] and 1.1 µM under setting [3].

`C[C@@H](C1CCCCC1)n1cnc2c(N)nc3ccccc3c21` [Example 6, 1-[(1S)-1-cyclohexylethyl]imidazo[4,5-c]quinolin-4-amine]: the “cytokine production (statement in words)” value is “inactive toward cytokine production”. Also, the minimal effective concentration under setting [1] is greater than 100 µM. Further, the minimal effective concentration under setting [2] was greater than 100 µM. For the same compound, the minimal effective concentration under setting [3] is greater than 100 µM.

Take `CC(C)C[C@H](n1cnc2c(N)nc3ccccc3c21)C(C)(C)O` [Example 18, (3S)-3-(4-aminoimidazo[4,5-c]quinolin-1-yl)-2,5-dimethyl-hexan-2-ol]: the “cytokine production (statement in words)” value was “inactive toward cytokine production”. Moreover, the minimal effective concentration under setting [1] was greater than 100 µM. Besides, the minimal effective concentration under setting [2] was greater than 100 µM. Further, the minimal effective concentration under setting [3] was greater than 100 µM.

As to `CCCC[C@@H](n1cnc2c(N)nc3ccccc3c21)C(C)(C)C` [Example 8, 1-[(1R)-1-tert-butylpentyl]imidazo[4,5-c]quinolin-4-amine], the minimal effective concentration by setting is: under setting [1], 0.04 µM; under setting [2], greater than 30 µM; under setting [3], 0.04 µM.

`CCCC[C@H](C(C)C)n1cnc2c(N)nc3ccccc3c21` [Example 7, 1-[(1R)-1-isopropylpentyl]imidazo[4,5-c]quinolin-4-amine]: the minimal effective concentration is, setting by setting: under setting [1], 0.12 µM; under setting [2], greater than 30 µM; under setting [3], 0.12 µM.

For the compound `CC(C)Cn1cnc2c(N)nc3ccccc3c21` [Comparative Example 1, 1-isobutylimidazo[4,5-c]quinolin-4-amine, reference compound], the minimal effective concentration under setting [1] is 11.1 µM, the minimal effective concentration under setting [2] was 11.1 µM and the minimal effective concentration under setting [3] was 11.1 µM.

Take `CCC[C@H](n1cnc2c(N)nc3ccccc3c21)C(C)(C)O` [Example 14, (3S)-3-(4-aminoimidazo[4,5-c]quinolin-1-yl)-2-methyl-hexan-2-ol]: the “cytokine production (statement in words)” value is “inactive toward cytokine production”. Besides, under setting [1], the minimal effective concentration is greater than 30 µM. In addition, the minimal effective concentration under setting [2] was greater than 30 µM. Under setting [3], the minimal effective concentration was greater than 30 µM.

Take `CC(C)[C@@H](C)n1cnc2c(N)nc3ccccc3c21` [Example 1, 1-[(1R)-1,2-dimethylpropyl]imidazo[4,5-c]quinolin-4-amine]: the minimal effective concentration is, setting by setting: under setting [1], 3.7 µM; under setting [2], 3.7 µM; under setting [3], 1.2 µM.

As for `C[C@H](n1cnc2c(N)nc3ccccc3c21)C(C)(C)F` [Example 21, 1-[(1S)-2-fluoro-1,2-dimethyl-propyl]imidazo[4,5-c]quinolin-4-amine], the “cytokine production (statement in words)” value is “inactive toward cytokine production”. For the same compound, under setting [1], the minimal effective concentration was greater than 100 µM. For the same compound, under setting [2], the minimal effective concentration was greater than 100 µM. For the same compound, under setting [3], the minimal effective concentration is greater than 100 µM.

As for `C[C@@H](n1cnc2c(N)nc3ccccc3c21)C(C)(C)F` [Example 20, 1-[(1R)-2-fluoro-1,2-dimethyl-propyl]imidazo[4,5-c]quinolin-4-amine], the minimal effective concentration came to 10 µM under setting [1], 30 µM under setting [2] and 10 µM under setting [3].

As for `CC(C)(O)Cn1cnc2c(N)nc3ccccc3c21` [Comparative Example 2, 1-(4-aminoimidazo[4,5-c]quinolin-1-yl)-2-methyl-propan-2-ol, reference compound], the minimal effective concentration runs as follows: under setting [1], 10 µM; under setting [2], 10 µM; under setting [3], 10 µM.

On to `C[C@H](C1CCCCC1)n1cnc2c(N)nc3ccccc3c21` [Example 5, 1-[(1R)-1-cyclohexylethyl]imidazo[4,5-c]quinolin-4-amine], for which the minimal effective concentration was found to be 0.41 µM under setting [1], 1.2 µM under setting [2] and 0.41 µM under setting [3].

In the case of `CCC(O)(CC)[C@@H](C)n1cnc2c(N)nc3ccccc3c21` [Example 19, (2R)-2-(4-aminoimidazo[4,5-c]quinolin-1-yl)-3-ethyl-pentan-3-ol], the minimal effective concentration by setting is: under setting [1], 1.1 µM; under setting [2], 3.3 µM; under setting [3], 1.1 µM.

As to `C[C@@H](n1cnc2c(N)nc3ccccc3c21)C(C)(C)C` [Example 3, 1-[(1R)-1,2,2-trimethylpropyl]imidazo[4,5-c]quinolin-4-amine], the minimal effective concentration worked out at 1.2 µM under setting [1], 1.2 µM under setting [2] and 1.2 µM under setting [3].

As to `C[C@@H](n1cnc2c(N)nc3ccccc3c21)C(C)(C)O` [Example 9, (3R)-3-(4-aminoimidazo[4,5-c]quinolin-1-yl)-2-methyl-butan-2-ol], the minimal effective concentration reads like this: under setting [1], 3.3 µM; under setting [2], 3.3 µM; under setting [3], 10 µM.

As to `CCC[C@@H](n1cnc2c(N)nc3ccccc3c21)C(C)(C)O` [Example 13, (3R)-3-(4-aminoimidazo[4,5-c]quinolin-1-yl)-2-methyl-hexan-2-ol], the minimal effective concentration was no more than 0.41 µM under setting [1], no more than 0.41 µM under setting [2] and no more than 0.41 µM under setting [3].

Consider `CC(C)[C@H](C)n1cnc2c(N)nc3ccccc3c21` [Example 2, 1-[(1S)-1,2-dimethylpropyl]imidazo[4,5-c]quinolin-4-amine], for which the “cytokine production (statement in words)” value is “inactive toward cytokine production”. In addition, under setting [1], the minimal effective concentration was greater than 100 µM. Further, under setting [2], the minimal effective concentration is greater than 100 µM. Further, under setting [3], the minimal effective concentration is greater than 100 µM.

For the compound `CC[C@H](n1cnc2c(N)nc3ccccc3c21)C(C)(C)O` [Example 12, (3S)-3-(4-aminoimidazo[4,5-c]quinolin-1-yl)-2-methyl-pentan-2-ol], the “cytokine production (statement in words)” value was “inactive toward cytokine production”. The minimal effective concentration under setting [1] was greater than 100 µM. Besides, the minimal effective concentration under setting [2] is greater than 100 µM. For the same compound, under setting [3], the minimal effective concentration was greater than 100 µM.
